Assay results taken from patent publication US5260276A, “Linear and monocyclic endothelin antagonists” (Warner-Lambert Company, priority 1991, dated 1993).
Where a SMILES comes first, the peptide text is derived from it. Bridges are numbered along the chain shown (N, C = ends). Where no end group is shown, it is not given here. [ ]: non-standard residue; d: D form. Ava = NCCCCC(=O)O

Tests used:
[1] = molecular target: endothelin receptor ([125I]-ET-1 binding), rat heart ventricle; experiment: Inhibition of [125I]-ET-1 binding in a receptor assay, rat heart ventricle; conditions: [125I]-ET-1, rat heart ventricle 10 μg, 37° C., 2 hours
Description: The compounds of Formula I are valuable antagonists of endothelin. […] Thus, the compounds of Formula I were tested for their ability to inhibit [^125 I]-ET-1([^125 I]-Endothelin-1) binding in a receptor assay. The binding of the compounds of Formula I is determined by incubation (37° C., 2 hours) of a compound of Formula I with [^125 I]-ET-1 and the tissue (rat heart ventricle (10 μg)) in 50 mM Tris(hydroxymethyl)aminomethane hydrochloride (Tris-HCl) (pH 7.4), 5 mM ethylenediamine tetraacetic acid (EDTA), 2 mM ethylene glycol bis(β-aminoethyl ether)N,N,N',N'-tetraacetic acid (EGTA), 100 μM phenylmethylsulfonyl fluoride (PMSF), and 100 μM bacitracin containing protease inhibitors (total volume of 0.5 mL). IC50 values are calculated by weighing nonlinear regression curve-fitting to the mass-action (Langmuir) equation. The functional activity of compounds of Formula I is determined in Rat-1 cells by measuring intracellular levels of second messengers. Thus, cells are prelabeled with [^3 H]-inositol and endothelin-stimulated accumulation of total [^3 H]-inositol phosphates in the presence of Li^+ is monitored using anion exchange chromatography as described by Muldoon, L. L., et al, Journal of Biological Chemistry, Volume 264, pages 8529-8536 (1989) and Dudley, D. T., et al, Molecular Pharmacology, Volume 38, pages 370-377 (1990). Antagonist activity is assessed as the ability of added compounds to reduce endothelin stimulated inositol phosphate accumulation. The data in the table show the endothelin antagonist activity of representative compounds of Formula I.

[2] = system: ET receptor, selected tissues; conditions: relative to ET-1; cited from earlier work

**Q.** For `CC[C@H](C)[C@H](NC(=O)[C@H](CC(=O)O)NC(=O)[C@H](CC(C)C)NC(=O)[C@H](Cc1c[nH]cn1)NC(=O)[C@@H]1CSSC[C@H](N)C(=O)N[C@@H](CO)C(=O)NCCCCC(=O)N[C@@H](C(C)C)C(=O)N[C@@H](Cc2ccc(O)cc2)C(=O)N[C@@H](Cc2ccccc2)C(=O)N1)C(=O)N[C@H](C(=O)N[C@@H](Cc1c[nH]c2ccccc12)C(=O)O)[C@@H](C)CC` [Example 5] (H-CS[Ava]VYFCHLDIIW-OH; disulfide 1-7; N-terminus and C-terminus assumed), which IC50 [1] is on record?
**A.** 1800 nM

**Q.** Which IC50 [1] does the source give for `CC[C@@H](C)[C@@H](NC(=O)[C@@H](NC(=O)[C@H](CC(=O)O)NC(=O)[C@H](CC(C)C)NC(=O)[C@H](Cc1c[nH]cn1)NC(=O)[C@@H]1CSSC[C@H](N)C(=O)N[C@@H](CO)C(=O)N[C@@H](CO)C(=O)N[C@@H](CO)C(=O)N[C@@H](C(C)C)C(=O)N[C@@H](Cc2ccc(O)cc2)C(=O)N[C@@H](Cc2ccccc2)C(=O)N1)[C@@H](C)CC)C(=O)N[C@@H](Cc1c[nH]c2ccccc12)C(=O)O` [Example 14] (H-CSSSVYFCHLDI[dI]W-OH; disulfide 1-8; N-terminus assumed) here?
**A.** 2600 nM

**Q.** Which “fold less functional activity” value [2] does the source give for “ET[1-20]: endothelin-1 fragment 1-20, lacking the C-terminal amino acid Trp-21 (CSCSSLMDKECVYFCHLDII; ends and bridges not checked; cysteine pairing not given here; UniProt P05305 53-72, looked up, fragment)” here?
**A.** approximately 1000 fold

**Q.** With `CC[C@H](C)[C@H](NC(=O)[C@H](CC(=O)O)NC(=O)[C@H](CC(C)C)NC(=O)[C@H](Cc1c[nH]cn1)NC(=O)[C@@H]1CSSC[C@H](N)C(=O)N[C@@H](CO)C(=O)N[C@@H](CC(=O)O)C(=O)N[C@@H](CC(C)C)C(=O)N[C@@H](CCC(=O)O)C(=O)N[C@@H](C(C)C)C(=O)N[C@@H](Cc2ccc(O)cc2)C(=O)N[C@@H](Cc2ccccc2)C(=O)N1)C(=O)N[C@H](C(=O)N[C@@H](Cc1c[nH]c2ccccc12)C(=O)O)[C@@H](C)CC` [Example 10] (H-CSDLEVYFCHLDIIW-OH; disulfide 1-9) as the molecule, how does the IC50 [1] read?
**A.** 3200 nM
